Assay results taken from ChEMBL document CHEMBL1201862, “PubChem BioAssay data set” (2004).
Calls of active or inactive are those of the source.

Experiments:
[1] = target: Sphingosine 1-phosphate receptor 2 (Homo sapiens, UniProt O95136); assay: Dose Response Cell Based Assay for Agonists of the S1P2 Receptor of Purchased Analogues. [Related pubchem assays: 729, 843, 854, 736 ]; assay type: functional
[2] = target: Mothers against decapentaplegic homolog 3 (Homo sapiens, UniProt P84022); assay: inhibitors of SMAD-driven TGF-beta signaling – dose response (AID 715); assay type: functional
[3] = target: Peroxisome proliferator-activated receptor gamma/Nuclear receptor coactivator 2 (Homo sapiens, UniProt P37231); assay: (§1) TR-FRET dose response biochemical High Throughput Screening assay for agonists of the steroid receptor coactivator 2 (SRC-2) recruitment by the peroxisome proliferator-activated receptor gamma (PPAR gamma): non-selective agonists. [Related pubchem assays: 1297, 1032 ]; assay type: functional
[4] = target: Peroxisome proliferator-activated receptor gamma/Nuclear receptor coactivator 1 (Homo sapiens, UniProt P37231); assay: as §1, with “1 (SRC-1)” for “2 (SRC-2)”, “assays (depositor defined):AID1300, AID1808, AID504735, AID631]” for “assays: 1297, 1032 ]”; assay type: protein assay
[5] = target: Peroxisome proliferator-activated receptor gamma/Nuclear receptor coactivator 3 (Homo sapiens, UniProt P37231); assay: as §1, with “3 (SRC-3)” for “2 (SRC-2)”, “1301 (Confirmation screen.), 1048 (Primary screen.)]” for “1297, 1032 ]”; assay type: functional
Streptokinase A = target: T1, Streptokinase A (Streptococcus pyogenes serotype M1, UniProt P10520); assay: viability-normalized secreted streptokinase activity reduction – plasminogen activation absorbance, OD405, dose response (AID 1914); assay type: functional, Streptococcus pyogenes M1 GAS;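 further: secreted streptokinase activity via plasminogen activation per viability signal from cell pellet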
T1 sequence (P10520 whole entry): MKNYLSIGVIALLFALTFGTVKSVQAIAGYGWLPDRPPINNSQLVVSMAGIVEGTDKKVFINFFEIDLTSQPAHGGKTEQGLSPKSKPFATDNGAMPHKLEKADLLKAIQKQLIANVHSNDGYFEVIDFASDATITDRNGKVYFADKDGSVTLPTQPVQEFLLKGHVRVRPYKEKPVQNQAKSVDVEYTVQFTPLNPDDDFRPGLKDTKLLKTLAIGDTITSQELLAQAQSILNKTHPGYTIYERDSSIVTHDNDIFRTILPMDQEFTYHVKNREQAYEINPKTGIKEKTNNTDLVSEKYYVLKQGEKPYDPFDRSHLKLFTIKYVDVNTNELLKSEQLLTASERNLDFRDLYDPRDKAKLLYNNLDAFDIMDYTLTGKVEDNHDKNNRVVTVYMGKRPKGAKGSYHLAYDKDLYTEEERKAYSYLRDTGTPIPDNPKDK

[6] = target: Peroxisome proliferator-activated receptor gamma/Nuclear receptor corepressor 2 (Homo sapiens, UniProt P37231+Q9Y618); assay: Counterscreen for NR2E3 inverse agonists: TR-FRET-based biochemical high throughput dose response assay to identify inverse agonists of the interaction between peroxisome proliferator-activated receptor gamma (PPARg) and nuclear receptor co-repressor 2 (NCOR2).; assay type: functional
Streptococcus = assay: GAS UMAA2166 growth inhibition – luminescence, BacTiterGlo, counter-screen for streptokinase expression inhibitor project, dose response (AID 1915); assay type: functional, organism-based;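 further: potency for reduction of bacterial viability or growth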
[7] = target: Photoreceptor-specific nuclear receptor (Homo sapiens, UniProt Q9Y5X4); assay: ligands suppressing NR2E3 nuclear receptor activity – biochemical, TR-FRET, dose response (AID 463256); assay type: functional
[8] = tested on: Streptococcus sp. 'group A'; assay: Streptococcus pyogenes SK(-)GAS viability under kanamycin – luminescence, BacTiterGlo, confirmation, counter-screen for streptokinase expression inhibitor project, dose response (AID 1900); assay type: functional, organism-based
Estrogen receptor beta [9] = target: T2, Estrogen receptor beta (Homo sapiens, UniProt Q92731);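 further: recombinant ER-beta bound to coactivator SRC1 peptide in presence of estradiol agonist; inhibitors block coactivator peptide binding and lower the FRET signal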
Estrogen receptor beta [10] = target: T2, Estrogen receptor beta; assay: blockers of SRC-3 recruitment to ERβ – biochemical, ELISA, streptavidin-HRP readout, orthogonal assay, confirmation (AID 1060)
[11] = target: Aryl hydrocarbon receptor (Homo sapiens, UniProt P35869); assay: Luminescence-based cell-based high throughput dose response assay for activators of the Aryl Hydrocarbon Receptor (AHR). [Related pubchem assays: 2796 (Primary screen (AHR activators in singlicate)), 2845 (Confirmation screen (AHR activators in triplicate)), 434939 (Counterscreen (PXR activators in triplicate)), 2804 (Summary (AHR activators))]; assay type: ADME
[12] = target: T3, DNA repair protein RAD52 homolog (Homo sapiens, UniProt P43351); assay type: functional, biochemical
T3 sequence (P43351 whole entry): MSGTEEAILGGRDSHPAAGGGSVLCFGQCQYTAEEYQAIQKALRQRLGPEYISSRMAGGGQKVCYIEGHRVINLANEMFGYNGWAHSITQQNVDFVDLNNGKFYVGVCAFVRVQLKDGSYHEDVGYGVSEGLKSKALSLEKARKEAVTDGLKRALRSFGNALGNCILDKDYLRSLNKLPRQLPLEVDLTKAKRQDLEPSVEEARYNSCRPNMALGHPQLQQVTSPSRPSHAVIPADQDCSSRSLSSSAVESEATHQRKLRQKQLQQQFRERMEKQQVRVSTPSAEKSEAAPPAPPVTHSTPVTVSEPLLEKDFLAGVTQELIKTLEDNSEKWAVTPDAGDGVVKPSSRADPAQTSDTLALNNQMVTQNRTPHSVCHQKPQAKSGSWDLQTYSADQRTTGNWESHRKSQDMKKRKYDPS

Vero [13] = assay: inhibition of WNV-induced cytopathic effect – cell-based, CPE readout (AID 1621); assay type: functional; settings: Chlorocebus sabaeus
[14] = target: T4, DNA repair and recombination protein RAD54-like (Homo sapiens, UniProt Q92698); assay: RAD54 Holliday junction migration blockers – biochemical, fluorescence, cherry-picked samples, dose series, confirmation (AID 651657); assay type: functional
T4 sequence (Q92698 whole entry): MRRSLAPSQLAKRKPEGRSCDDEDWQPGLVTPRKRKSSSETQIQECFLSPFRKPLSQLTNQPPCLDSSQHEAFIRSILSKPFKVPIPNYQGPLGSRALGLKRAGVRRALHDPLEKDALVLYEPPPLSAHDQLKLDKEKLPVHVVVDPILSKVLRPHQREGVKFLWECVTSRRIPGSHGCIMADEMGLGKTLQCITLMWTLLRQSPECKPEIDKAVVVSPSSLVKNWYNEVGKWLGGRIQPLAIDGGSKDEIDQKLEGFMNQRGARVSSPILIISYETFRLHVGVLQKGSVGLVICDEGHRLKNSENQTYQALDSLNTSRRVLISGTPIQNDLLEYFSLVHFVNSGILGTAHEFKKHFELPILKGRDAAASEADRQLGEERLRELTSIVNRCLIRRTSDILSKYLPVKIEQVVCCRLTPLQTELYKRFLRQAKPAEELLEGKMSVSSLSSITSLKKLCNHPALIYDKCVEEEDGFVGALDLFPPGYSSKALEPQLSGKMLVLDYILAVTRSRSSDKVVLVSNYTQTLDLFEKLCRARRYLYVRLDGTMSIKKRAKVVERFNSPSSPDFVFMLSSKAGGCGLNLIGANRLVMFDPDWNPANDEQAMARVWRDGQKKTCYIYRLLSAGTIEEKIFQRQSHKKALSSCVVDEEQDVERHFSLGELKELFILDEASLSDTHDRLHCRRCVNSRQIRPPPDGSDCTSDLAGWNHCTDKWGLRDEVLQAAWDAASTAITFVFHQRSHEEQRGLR

Trypsin = Trypsin (Sus scrofa, UniProt P00761); assay: trypsin protease activity blockade – biochemical, quenched peptide fluorescence, cherry-pick, selectivity assay for Rce1 protease inhibitor project, dose response (AID 488789)
CAAX prenyl protease 2 = target: T5, CAAX prenyl protease 2 (Saccharomyces cerevisiae S288c, UniProt Q03530); assay type: biochemical
T5 sequence (Q03530 whole entry): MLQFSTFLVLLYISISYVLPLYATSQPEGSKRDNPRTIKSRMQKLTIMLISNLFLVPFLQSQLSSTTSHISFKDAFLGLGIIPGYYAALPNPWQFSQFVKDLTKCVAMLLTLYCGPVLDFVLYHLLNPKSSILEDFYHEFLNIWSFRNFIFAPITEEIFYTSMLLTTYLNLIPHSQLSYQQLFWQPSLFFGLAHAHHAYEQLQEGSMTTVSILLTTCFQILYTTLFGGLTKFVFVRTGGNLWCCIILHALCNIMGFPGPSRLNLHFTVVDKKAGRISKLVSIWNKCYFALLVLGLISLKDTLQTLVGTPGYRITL

Vero [15] = assay: mammalian cell viability reduction – secondary assay, cytotoxicity control for West Nile virus antiviral project, dose response (AID 1650); assay type: functional; settings: Chlorocebus sabaeus
NADPH oxidase 1 = NADPH oxidase 1 (Homo sapiens, UniProt Q9Y5S8); assay type: functional, cell-based;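 further: Cell-based assay with luminescence read-out, IC50 derived from inhibitor dose-response curves; intracellular ROS from endogenous NOX1 in intact HT29 colon cancer cells; potency of inhibitors that lower the ROS luminescence signal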
[16] = target: 5-hydroxytryptamine receptor 1A (Homo sapiens, UniProt P08908); assay type: functional
Bcl-2-like protein 10 = Bcl-2-like protein 10 (Homo sapiens, UniProt Q9HD36); assay: Concentration-response of Bcl-B inhibitors by biochemical FP with TR3 (AID 1243); assay type: functional
[17] = target: T6, RNA-binding protein pos-1 (Caenorhabditis elegans, UniProt G5EF15); assay: disruptors of C. elegans POS-1 RNA interaction – biochemical, fluorescence polarization, dose response (AID 1964);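 further: purified POS-1 fused to maltose binding protein made in E. coli; potency of compounds blocking POS-1 binding to fluorescent RNA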
T6 sequence (G5EF15 whole entry): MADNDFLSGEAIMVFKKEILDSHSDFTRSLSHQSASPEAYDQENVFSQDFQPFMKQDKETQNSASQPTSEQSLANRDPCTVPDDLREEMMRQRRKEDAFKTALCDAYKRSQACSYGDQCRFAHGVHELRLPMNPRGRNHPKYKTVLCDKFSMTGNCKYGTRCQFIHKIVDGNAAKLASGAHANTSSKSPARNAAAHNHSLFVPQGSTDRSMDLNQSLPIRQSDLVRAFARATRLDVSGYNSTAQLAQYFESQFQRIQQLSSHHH

SUMO-activating enzyme [18] = target: T7, SUMO-activating enzyme (Homo sapiens, UniProt Q9UBT2); assay: blockers of UBC9-mediated SUMO conjugation – biochemical, AlphaScreen, SUMOylation inhibitor project, confirmation (AID 2018); assay type: functional
SUMO-activating enzyme [19] = target: T7, SUMO-activating enzyme; assay: blockers of SAE1/SAE2–UBC9 SUMO transfer – biochemical, HTRF, uHTS, primary screen (AID 2006); assay type: protein-complex assay
[20] = target: T8, Zinc finger protein mex-5 (Caenorhabditis elegans, UniProt Q9XUB2); assay: potency of MEX-5 RNA-binding blockers – biochemical, C. elegans, fluorescence polarization, dose response (AID 1960)
T8 sequence (Q9XUB2 whole entry): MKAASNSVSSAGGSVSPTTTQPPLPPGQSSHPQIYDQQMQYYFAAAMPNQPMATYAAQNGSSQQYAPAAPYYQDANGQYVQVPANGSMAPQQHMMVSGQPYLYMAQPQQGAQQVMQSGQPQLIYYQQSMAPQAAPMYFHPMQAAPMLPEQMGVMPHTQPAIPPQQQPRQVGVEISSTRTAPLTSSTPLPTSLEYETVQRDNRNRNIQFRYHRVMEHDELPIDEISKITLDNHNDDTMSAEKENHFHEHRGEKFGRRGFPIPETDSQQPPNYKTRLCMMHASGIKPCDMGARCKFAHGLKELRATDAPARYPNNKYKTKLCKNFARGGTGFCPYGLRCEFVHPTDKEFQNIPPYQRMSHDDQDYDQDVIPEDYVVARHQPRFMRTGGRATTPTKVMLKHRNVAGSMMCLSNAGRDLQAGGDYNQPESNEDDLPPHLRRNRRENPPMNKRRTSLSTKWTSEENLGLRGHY

[21] = mitochondrial function rescue without frataxin homolog – Friedreich's ataxia, plus single-dose screen, dose response (AID 1465); assay type: functional;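 further: yeast depleted of Yfh1p frataxin homolog grown on glycerol needing respiration; WST-1 tetrazolium dye reduction as measure of cellular dehydrogenase metabolic activity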
Cytochrome P450 2C19 = Cytochrome P450 2C19 (Homo sapiens, UniProt P33261); assay: qHTS Assay for Inhibitors and Substrates of Cytochrome P450 2C19. [Related pubchem assays: 410 ]; assay type: ADME; settings: read-out: Potency

T2 sequence (Q92731 whole entry): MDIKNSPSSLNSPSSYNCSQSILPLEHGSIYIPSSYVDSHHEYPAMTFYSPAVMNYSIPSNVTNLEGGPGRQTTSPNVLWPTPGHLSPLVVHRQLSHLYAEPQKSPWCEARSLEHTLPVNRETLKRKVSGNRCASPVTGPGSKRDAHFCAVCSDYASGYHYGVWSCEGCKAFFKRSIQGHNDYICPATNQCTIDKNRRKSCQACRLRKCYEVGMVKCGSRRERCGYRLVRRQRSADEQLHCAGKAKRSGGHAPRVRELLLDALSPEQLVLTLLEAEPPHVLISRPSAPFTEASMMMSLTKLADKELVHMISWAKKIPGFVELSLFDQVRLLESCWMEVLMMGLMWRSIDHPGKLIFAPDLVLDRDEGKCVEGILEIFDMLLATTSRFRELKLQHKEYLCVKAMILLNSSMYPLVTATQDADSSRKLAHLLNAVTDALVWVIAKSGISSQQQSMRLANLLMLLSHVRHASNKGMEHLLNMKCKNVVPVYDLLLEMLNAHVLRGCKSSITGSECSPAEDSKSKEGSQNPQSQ
T7 sequence (Q9UBE0 whole entry): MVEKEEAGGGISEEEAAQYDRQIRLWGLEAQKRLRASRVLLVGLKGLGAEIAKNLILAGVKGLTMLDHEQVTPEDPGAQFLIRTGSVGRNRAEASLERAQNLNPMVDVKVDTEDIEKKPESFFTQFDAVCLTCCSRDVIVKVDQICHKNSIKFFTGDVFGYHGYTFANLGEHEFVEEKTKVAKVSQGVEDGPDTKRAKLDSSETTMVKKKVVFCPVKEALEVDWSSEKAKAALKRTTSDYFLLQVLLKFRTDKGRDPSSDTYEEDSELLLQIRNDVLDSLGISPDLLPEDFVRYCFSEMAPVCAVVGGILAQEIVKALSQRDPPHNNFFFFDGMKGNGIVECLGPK
T7 sequence (Q9UBT2 whole entry): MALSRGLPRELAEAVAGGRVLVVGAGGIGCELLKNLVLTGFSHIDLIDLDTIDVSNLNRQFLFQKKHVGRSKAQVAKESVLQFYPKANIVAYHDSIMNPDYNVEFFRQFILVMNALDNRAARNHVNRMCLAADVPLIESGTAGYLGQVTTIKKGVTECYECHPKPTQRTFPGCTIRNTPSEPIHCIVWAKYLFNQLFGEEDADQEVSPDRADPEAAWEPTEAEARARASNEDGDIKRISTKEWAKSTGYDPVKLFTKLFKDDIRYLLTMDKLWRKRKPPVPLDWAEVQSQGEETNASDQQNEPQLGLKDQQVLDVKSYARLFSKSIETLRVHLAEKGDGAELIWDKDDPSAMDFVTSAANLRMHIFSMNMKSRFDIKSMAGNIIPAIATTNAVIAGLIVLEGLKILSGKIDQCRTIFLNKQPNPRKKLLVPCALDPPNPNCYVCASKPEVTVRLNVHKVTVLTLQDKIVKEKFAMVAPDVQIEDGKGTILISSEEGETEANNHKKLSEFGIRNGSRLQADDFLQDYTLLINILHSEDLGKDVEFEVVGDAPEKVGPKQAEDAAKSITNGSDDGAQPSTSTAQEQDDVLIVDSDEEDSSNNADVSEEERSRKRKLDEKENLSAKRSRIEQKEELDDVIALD
Chain of NADPH oxidase 1 (Q9Y5S8 whole entry): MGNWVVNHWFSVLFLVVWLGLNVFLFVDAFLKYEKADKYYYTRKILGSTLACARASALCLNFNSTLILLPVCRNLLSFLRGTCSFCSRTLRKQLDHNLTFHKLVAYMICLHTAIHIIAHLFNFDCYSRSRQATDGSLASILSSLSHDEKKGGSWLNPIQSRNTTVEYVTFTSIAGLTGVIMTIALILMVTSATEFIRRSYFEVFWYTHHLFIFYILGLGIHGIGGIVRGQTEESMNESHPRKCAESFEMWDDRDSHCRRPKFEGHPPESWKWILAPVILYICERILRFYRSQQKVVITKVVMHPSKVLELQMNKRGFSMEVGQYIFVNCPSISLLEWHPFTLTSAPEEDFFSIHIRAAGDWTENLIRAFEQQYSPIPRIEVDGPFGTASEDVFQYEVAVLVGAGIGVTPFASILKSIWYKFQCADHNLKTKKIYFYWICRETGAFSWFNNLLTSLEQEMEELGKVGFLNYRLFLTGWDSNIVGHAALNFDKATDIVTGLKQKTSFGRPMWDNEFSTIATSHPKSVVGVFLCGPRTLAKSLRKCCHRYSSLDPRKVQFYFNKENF
Chain of Aryl hydrocarbon receptor (P35869 whole entry): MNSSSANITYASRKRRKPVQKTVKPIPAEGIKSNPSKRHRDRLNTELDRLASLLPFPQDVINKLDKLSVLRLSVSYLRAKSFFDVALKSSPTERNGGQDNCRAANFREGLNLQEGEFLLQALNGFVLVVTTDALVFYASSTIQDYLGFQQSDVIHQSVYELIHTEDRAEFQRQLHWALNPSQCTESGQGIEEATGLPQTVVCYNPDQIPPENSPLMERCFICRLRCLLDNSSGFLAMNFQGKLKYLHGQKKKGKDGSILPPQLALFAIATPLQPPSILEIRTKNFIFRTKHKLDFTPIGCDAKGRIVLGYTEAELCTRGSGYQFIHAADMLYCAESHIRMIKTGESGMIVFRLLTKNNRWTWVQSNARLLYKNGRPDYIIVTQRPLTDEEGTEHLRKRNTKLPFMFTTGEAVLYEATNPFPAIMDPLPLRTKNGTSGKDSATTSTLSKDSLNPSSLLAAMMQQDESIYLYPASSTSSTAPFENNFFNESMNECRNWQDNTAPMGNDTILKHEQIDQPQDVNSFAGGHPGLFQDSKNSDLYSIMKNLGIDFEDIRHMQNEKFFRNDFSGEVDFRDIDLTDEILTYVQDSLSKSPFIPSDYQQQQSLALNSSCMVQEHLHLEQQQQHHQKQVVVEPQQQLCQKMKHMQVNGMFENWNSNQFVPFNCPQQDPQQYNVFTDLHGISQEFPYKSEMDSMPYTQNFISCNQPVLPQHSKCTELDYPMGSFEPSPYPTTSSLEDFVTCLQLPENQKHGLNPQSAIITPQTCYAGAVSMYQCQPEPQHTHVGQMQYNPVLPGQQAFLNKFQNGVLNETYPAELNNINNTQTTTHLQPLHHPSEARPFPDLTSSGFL
Chain of Photoreceptor-specific nuclear receptor (Q9Y5X4 whole entry): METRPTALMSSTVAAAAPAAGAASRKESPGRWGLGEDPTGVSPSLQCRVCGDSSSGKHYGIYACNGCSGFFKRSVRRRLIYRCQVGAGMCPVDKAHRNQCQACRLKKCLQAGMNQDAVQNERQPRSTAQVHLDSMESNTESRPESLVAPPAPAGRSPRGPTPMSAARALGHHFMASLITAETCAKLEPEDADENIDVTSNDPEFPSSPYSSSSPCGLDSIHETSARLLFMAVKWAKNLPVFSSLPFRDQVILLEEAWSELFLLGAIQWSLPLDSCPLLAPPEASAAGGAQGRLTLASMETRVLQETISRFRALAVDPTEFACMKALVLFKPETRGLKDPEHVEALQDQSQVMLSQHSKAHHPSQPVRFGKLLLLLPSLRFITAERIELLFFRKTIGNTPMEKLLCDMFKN
Chain of Trypsin (P00761 whole entry): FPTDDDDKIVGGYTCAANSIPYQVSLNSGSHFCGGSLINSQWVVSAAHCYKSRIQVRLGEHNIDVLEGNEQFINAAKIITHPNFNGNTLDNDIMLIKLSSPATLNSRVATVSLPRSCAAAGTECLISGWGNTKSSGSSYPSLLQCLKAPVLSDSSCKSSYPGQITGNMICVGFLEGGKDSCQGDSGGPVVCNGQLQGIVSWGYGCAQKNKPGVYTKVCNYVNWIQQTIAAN
Chain of Sphingosine 1-phosphate receptor 2 (O95136 whole entry): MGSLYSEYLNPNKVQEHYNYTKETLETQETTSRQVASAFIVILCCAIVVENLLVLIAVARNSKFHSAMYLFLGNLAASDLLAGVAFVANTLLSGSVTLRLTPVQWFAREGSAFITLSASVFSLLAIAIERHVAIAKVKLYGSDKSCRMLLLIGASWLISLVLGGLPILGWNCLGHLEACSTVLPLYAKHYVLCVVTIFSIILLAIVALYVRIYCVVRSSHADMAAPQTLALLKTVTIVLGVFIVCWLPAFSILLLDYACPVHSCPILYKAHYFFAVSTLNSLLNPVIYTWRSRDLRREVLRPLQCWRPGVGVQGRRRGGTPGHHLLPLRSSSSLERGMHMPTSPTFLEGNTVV
Chain of Mothers against decapentaplegic homolog 3 (P84022 whole entry): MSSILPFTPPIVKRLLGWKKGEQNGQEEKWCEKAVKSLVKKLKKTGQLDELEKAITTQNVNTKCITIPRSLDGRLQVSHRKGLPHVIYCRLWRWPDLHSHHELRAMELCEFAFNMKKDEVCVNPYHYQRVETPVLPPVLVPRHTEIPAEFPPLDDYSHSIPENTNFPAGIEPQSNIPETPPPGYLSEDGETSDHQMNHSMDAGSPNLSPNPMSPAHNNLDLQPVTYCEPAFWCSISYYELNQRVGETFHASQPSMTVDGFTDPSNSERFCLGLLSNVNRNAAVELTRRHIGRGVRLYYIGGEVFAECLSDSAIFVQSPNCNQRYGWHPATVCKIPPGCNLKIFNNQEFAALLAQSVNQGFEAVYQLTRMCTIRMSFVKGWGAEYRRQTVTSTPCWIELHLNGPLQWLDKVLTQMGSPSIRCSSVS
Chain of Bcl-2-like protein 10 (Q9HD36 whole entry, the tested form may be a part): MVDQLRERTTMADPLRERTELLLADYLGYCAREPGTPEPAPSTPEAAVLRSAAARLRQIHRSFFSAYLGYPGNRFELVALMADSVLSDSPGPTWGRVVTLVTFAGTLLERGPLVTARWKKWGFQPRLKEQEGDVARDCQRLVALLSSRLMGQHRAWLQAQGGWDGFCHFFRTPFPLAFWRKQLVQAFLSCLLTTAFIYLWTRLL
Chain of 5-hydroxytryptamine receptor 1A (P08908 whole entry): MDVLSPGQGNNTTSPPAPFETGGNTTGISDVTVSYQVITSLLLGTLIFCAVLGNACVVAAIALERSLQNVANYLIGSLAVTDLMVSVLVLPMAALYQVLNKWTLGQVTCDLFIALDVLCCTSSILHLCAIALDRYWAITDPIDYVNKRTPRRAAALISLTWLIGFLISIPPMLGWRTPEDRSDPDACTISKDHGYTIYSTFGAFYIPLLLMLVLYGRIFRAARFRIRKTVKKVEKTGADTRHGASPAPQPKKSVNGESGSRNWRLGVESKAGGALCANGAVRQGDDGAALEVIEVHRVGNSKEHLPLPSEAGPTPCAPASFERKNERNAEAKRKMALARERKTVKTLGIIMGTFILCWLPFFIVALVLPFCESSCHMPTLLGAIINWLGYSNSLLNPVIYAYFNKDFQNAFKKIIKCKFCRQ

Cc1cc(C(=O)CN2C(=O)C(=O)N(C3CCCC3)C2=O)c(C)n1Cc1ccccc1
EC50 [1]: > 30 µM (not active)

CCN1CCCC1CNC(=O)CSc1cc(=O)n(C)c2cc(Cl)ccc12 (stereo not drawn)
IC50 [2]: 8.7 µM (active)
EC50 [3]: > 79.4 µM (not active)
EC50 [4]: > 79.4 µM (inactive)
EC50 [5]: > 79.4 µM (not active)

O=C(COc1ccc(Cl)cc1Cl)Nc1ccc(-c2ccc(N3CCOCC3)nn2)cc1
EC50 (Streptokinase A): > 150 µM (not active)
IC50 [6]: 1.51 µM (active)
EC50 (Streptococcus): > 150 µM (not active)
IC50 [7]: 1.43 µM (active)
EC50 [8]: > 150 µM (not active)

O=C(c1cc2ncc(Br)cn2n1)N1CCOCC1
IC50 (Estrogen receptor beta [9]): 9.16 µM (active)
IC50 (Estrogen receptor beta [10]): 23 µM (not active)

Cc1nc(C)c(C(=O)N/N=C/c2c[nH]c3ccccc23)s1
EC50 [11]: > 91.7 µM (not active)

CCN(CC)CCCNC(=O)c1cc2c(-c3cccc(OC)c3)nn(C)c2s1
AC50 [12]: 6.07 µM (active)
IC50 (Vero [13]): 19.9 µM (active)
AC50 [14]: 34.1 µM (active)
AC50 (Trypsin): 9.95 µM (active)
AC50 (CAAX prenyl protease 2): 77.8 µM (active)
CC50 (Vero [15]): > 100 µM (active)

C=C(NNc1c(Cl)c(Cl)nc(C(=O)O)c1Cl)c1ccc2c(c1)OCCO2
IC50 (NADPH oxidase 1): > 17 µM (not active)

Cc1c(CN2CCN(c3cccc(C(F)(F)F)c3)CC2)c(=O)n(-c2ccccc2)n1C
EC50 [16]: > 50 µM (not active)

Nc1ccc(Oc2ccc(N)c(N)c2)cc1N
EC50 (Bcl-2-like protein 10): 5.37 µM (active)

COc1cc([N+](=O)[O-])cc(/C=N/NC(=O)CC#N)c1O
EC50 [17]: > 300 µM (inconclusive)
IC50 (SUMO-activating enzyme [18]): 1.15 µM (active)
IC50 (SUMO-activating enzyme [19]): 8.76 µM (active)
EC50 [20]: > 300 µM (inconclusive)
EC50 [21]: > 100 µM (active)

CC(C)C[C@H](NC(=O)[C@@H](NC(=O)N[C@@H](Cc1ccccc1)C(=O)O)[C@H]1CCN=C(N)N1)C(=O)N[C@H](C=O)Cc1ccccc1
AC50 (Cytochrome P450 2C19): 10 µM (inconclusive)
